Measured values published in US7608626B2, “Substituted indolizines and derivatives as CNS agents” (Wyeth, priority 2004, dated 2009).
Where a name gives a salt, the structure may show the parent alone. Read-outs that look alike come from different tables or passages of the source.

How the values were obtained:
[1] = target: T1, human 5-hydroxytryptamine-2C (h-5-HT2C) receptor (Homo sapiens, UniProt P28335); assay: [125I]DOI binding to membranes of CHO cells expressing h-5-HT2C receptor
T1 construct: expressed in transfected cells; host or cells: Chinese Hamster Ovary (CHO) cells; membrane preparation
T1 sequence (P28335 33-458): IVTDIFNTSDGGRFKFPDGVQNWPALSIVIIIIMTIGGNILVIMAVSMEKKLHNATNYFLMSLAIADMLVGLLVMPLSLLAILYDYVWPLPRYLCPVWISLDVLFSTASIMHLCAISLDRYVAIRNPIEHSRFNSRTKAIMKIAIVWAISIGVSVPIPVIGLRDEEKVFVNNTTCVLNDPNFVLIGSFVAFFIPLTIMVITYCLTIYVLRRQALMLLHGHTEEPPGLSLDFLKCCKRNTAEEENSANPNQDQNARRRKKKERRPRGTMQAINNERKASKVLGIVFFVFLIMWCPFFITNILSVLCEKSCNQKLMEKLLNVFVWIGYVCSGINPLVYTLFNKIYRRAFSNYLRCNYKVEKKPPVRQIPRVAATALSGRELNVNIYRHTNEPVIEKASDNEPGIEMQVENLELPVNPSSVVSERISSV

[2] = target: T2, human 5-HT2C receptor (Homo sapiens, UniProt P28335); assay: 5-HT2C receptor-stimulated calcium mobilization (FLIPR) in CHO cells; format: cell-based; conditions: for Emax: CHO, read-out: 5-HT2C Function Emax (%); for EC50: calcium mobilization, CHO cells, read-out: 5-HT2C Function EC50
T2 construct: expressed in transfected cells
T2 sequence (P28335 33-458): T1 sequence (P28335 33-458)

| SMILES | melting point | Ki ([1]; read-out: 5-HT2C Affinity Ki) [nM] | other results |
| --- | --- | --- | --- |
| CCNCCc1c(CC)c(CC)n2ccccc12 (as salt: fumaric acid salt) [Example 6, N-[2-(2,3-diethylindolizin-1-yl)ethyl]-N-ethylamine] | 154 to 158 °C |  |  |
| CCCNCCc1c(CC)c(CCC)n2ccccc12 [Example 8] |  | 208 |  |
| CCCc1c(CC)c(CCN)c2ccccn12 (as salt: fumaric acid salt) [Example 7, 2-(2-ethyl-3-propylindolizin-1-yl)ethylamine] | 154 to 158 °C |  |  |
| CCCc1c(CC)c(CCN)c2ccccn12 [Example 7, 2-(2-ethyl-3-propylindolizin-1-yl)ethylamine] |  |  | Ki [1]: 21 nM; Emax [2]: 100%; EC50 [2]: 19 nM |
| NCCc1c2c(n3ccccc13)CCCC2 [Example 12, 2-(1,2,3,4-tetrahydropyrido[1,2-a]indol-10-yl)ethylamine] |  |  | Ki [1]: 98 nM |
| CCc1cn2ccccc2c1CCN (as salt: fumaric acid salt) [Example 4, 2-(2-ethylindolizin-1-yl)ethylamine] | 170 to 175 °C (dec.) |  |  |
| NCCc1c(-c2ccccc2)cn2ccccc12 [Example 1, 2-(2-phenylindolizin-1-yl)ethylamine] |  | 272 |  |
| CCCc1c(CC)c(CC(C)N)c2ccccn12 (stereo not drawn) [Example 9, 2-(2-ethyl-3-propylindolizin-1-yl)-1-methylethylamine] |  | 124 |  |
| CCc1c(CCN)c2ccccn2c1CC (as salt: fumaric acid salt) [Example 5, 2-(2,3-diethylindolizin-1-yl)ethylamine] | 166 to 171 °C |  |  |
| CCCc1c(CC)c(CC(C)N)c2ccccn12 (stereo not drawn) (as salt: fumaric acid salt) [Example 9, 2-(2-ethyl-3-propylindolizin-1-yl)-1-methylethylamine] | 184 to 186 °C |  |  |
| CCCc1c(-c2ccccc2)c(CCN)c2ccccn12 (as salt: fumaric acid salt) [Example 3, 2-(2-phenyl-3-propylindolizin-1-yl)ethylamine] | 169 to 172 °C |  |  |
| CCc1c(-c2ccccc2)c(CCN)c2ccccn12 (as salt: fumaric acid salt) [Example 2, 2-(3-ethyl-2-phenylindolizin-1-yl)ethylamine] | 173 to 176 °C |  |  |
| CCNCCc1c(CC)c(CC)n2ccccc12 [Example 6, N-[2-(2,3-diethylindolizin-1-yl)ethyl]-N-ethylamine] |  | 228 |  |
| CCCc1c(C)c(CC(N)CC)c2ccccn12 (stereo not drawn) [Example 11, 1-(2-methyl-3-propylindolizin-1-yl)butan-2-amine] |  | 457 |  |
| CCc1cn2ccccc2c1CCN [Example 4, 2-(2-ethylindolizin-1-yl)ethylamine] |  |  | Ki [1]: 121 nM |
| CCc1c(-c2ccccc2)c(CCN)c2ccccn12 [Example 2, 2-(3-ethyl-2-phenylindolizin-1-yl)ethylamine] |  | 117 |  |
| CCCc1c(C)c(CC(C)N)c2ccccn12 (stereo not drawn) (as salt: fumaric acid salt) [Example 10, 1-(2-methyl-3-propylindolizin-1-yl)propan-2-amine] | 147 to 150 °C |  |  |
| CCCc1c(-c2ccccc2)c(CCN)c2ccccn12 [Example 3, 2-(2-phenyl-3-propylindolizin-1-yl)ethylamine] |  | 54 |  |
| CCCc1c(C)c(CC(C)N)c2ccccn12 (stereo not drawn) [Example 10, 1-(2-methyl-3-propylindolizin-1-yl)propan-2-amine] |  |  | Ki [1]: 17 nM; Emax [2]: 90%; EC50 [2]: 46 nM |
| CCc1c(CCN)c2ccccn2c1CC [Example 5, 2-(2,3-diethylindolizin-1-yl)ethylamine] |  |  | Ki [1]: 35 nM; Emax [2]: 80%; EC50 [2]: 11 nM |
| CSc1ccc2c(c1)C(N1CCN(C)CC1)Cc1ccccc1S2 (stereo not drawn) [Methiothepin, reference compound] |  |  | Ki ([1]; reference compounds, [125I]DOI radioligand, CHO cell membranes, read-out: Ki (95% confidence interval)): 4.6 nM |
